Values of other authors in article PMC11101992 (Clinical and Translational Science, 2024).
Blank lines part the entries; values can stand above or below the molecule they belong to.

healthy subjects with rash (900 mg): 22%
SMILES: CN[C@@H]1COc2c(S(=O)(=O)NC(=O)Nc3c4c(cc5c3CCC5)CCC4)cnn2C1 [GDC‐2394]

SMILES: CN1CCC[C@]1(C)/C=C/S(=O)(=O)NC(=O)Nc1c2c(cc3c1CCC3)CCC2 [ZYIL1]
drug‐related skin reactions (in words) (early clinical trials): did not yet report any drug‐related skin reactions
IL‐1β release inhibition (IL‐1β release; healthy subjects): > 90%

SMILES: CS(=O)(=O)CCC#N [dapansutrile]
IL‐1β release reduction (in words) (IL‐1β release; healthy subjects and patients with gout flare): only partially reduced
